Assay results reported in patent US11357230B2, “Herbicidal amides” (FMC Corporation, priority 2017, dated 2022).

Experiments:
Assay type in all cases: in vivo
[1] = tested on: kochia (Kochia scoparia); assay: Test A postemergence, kochia; conditions: approximately 10 d
Source text: (§1) Seeds of plant species selected from barnyardgrass (Echinochloa crus-galli), kochia (Kochia scoparia), ragweed (common ragweed, Ambrosia elatior), ryegrass, Italian (Italian ryegrass, Lolium multiflorum), foxtail, green (green foxtail, Setaria viridis), and pigweed (Amaranthus retroflexus) were planted into a blend of loam soil and sand and treated preemergence with a directed soil spray using test chemicals formulated in a non-phytotoxic solvent mixture which included a surfactant. At the same time, plants selected from these weed species and also wheat (Triticum aestivum), corn (Zea mays), blackgrass (Alopecurus myosuroides), and galium (catchweed bedstraw, Galium aparine) were planted in pots containing the same blend of loam soil and sand and treated with postemergence applications of test chemicals formulated in the same manner. Plants ranged in height from 2 to 10 cm and were in the one- to two-leaf stage for the postemergence treatment. Treated plants and untreated controls were maintained in a greenhouse for approximately 10 d, after which time all treated plants were compared to untreated controls and visually evaluated for injury. Plant response ratings, summarized in Table A, are based on a 0 to 100 scale where 0 is no effect and 100 is complete control. A dash (-) response means no test result.

[2] = tested on: pigweed (Amaranthus retroflexus); assay: Test A postemergence, pigweed; conditions: approximately 10 d
Source text: as §1

[3] = tested on: blackgrass (Alopecurus myosuroides); assay: Test A postemergence, blackgrass; conditions: approximately 10 d
Source text: as §1

[4] = tested on: kochia (Kochia scoparia); assay: Test A preemergence, kochia; conditions: approximately 10 d
Source text: as §1

[5] = tested on: sedge, umbrella (small-flower umbrella sedge, Cyperus difformis); assay: Test B flooded paddy test, umbrella sedge; conditions: 250 g ai/ha, Flood (paddy water), 13 to 15 d
Method: (§2) Plant species in the flooded paddy test selected from rice (Oryza sativa), sedge, umbrella (small-flower umbrella sedge, Cyperus difformis), ducksalad (Heteranthera limosa), and barnyardgrass (Echinochloa crus-galli) were grown to the 2-leaf stage for testing. At time of treatment, test pots were flooded to 3 cm above the soil surface, treated by application of test compounds directly to the paddy water, and then maintained at that water depth for the duration of the test. Treated plants and controls were maintained in a greenhouse for 13 to 15 d, after which time all species were compared to controls and visually evaluated. Plant response ratings, summarized in Table B, are based on a scale of 0 to 100 where 0 is no effect and 100 is complete control. A dash (-) response means no test result.

[6] = tested on: ragweed (common ragweed, Ambrosia elatior); assay: Test A postemergence, ragweed; conditions: approximately 10 d
Source text: as §1

[7] = tested on: ryegrass, Italian (Italian ryegrass, Lolium multiflorum); assay: Test A postemergence, Italian ryegrass; conditions: approximately 10 d
Source text: as §1

[8] = tested on: Foxtail, Giant; assay: Test A preemergence, giant foxtail; conditions: approximately 10 d
[9] = tested on: ryegrass, Italian (Italian ryegrass, Lolium multiflorum); assay: Test A preemergence, Italian ryegrass; conditions: approximately 10 d
Source text: as §1

[10] = tested on: galium (catchweed bedstraw, Galium aparine); assay: Test A postemergence, galium; conditions: approximately 10 d
Source text: as §1

[11] = tested on: pigweed (Amaranthus retroflexus); assay: Test A preemergence, pigweed; conditions: approximately 10 d
Source text: as §1

[12] = tested on: wheat (Triticum aestivum); assay: Test A postemergence, wheat; conditions: approximately 10 d
Source text: as §1

[13] = tested on: corn (Zea mays); assay: Test A postemergence, corn; conditions: approximately 10 d
Source text: as §1

[14] = tested on: ducksalad (Heteranthera limosa); assay: Test B flooded paddy test, ducksalad; conditions: 250 g ai/ha, Flood (paddy water), 13 to 15 d
Method: as §2

[15] = tested on: barnyardgrass (Echinochloa crus-galli); assay: Test A postemergence, barnyardgrass; conditions: approximately 10 d
Source text: as §1

[16] = tested on: rice (Oryza sativa); assay: Test B flooded paddy test, rice; conditions: 250 g ai/ha, Flood (paddy water), 13 to 15 d
Method: as §2

[17] = tested on: ragweed (common ragweed, Ambrosia elatior); assay: Test A preemergence, ragweed; conditions: approximately 10 d
Source text: as §1

[18] = tested on: barnyardgrass (Echinochloa crus-galli); assay: Test A preemergence, barnyardgrass; conditions: approximately 10 d
Source text: as §1

[19] = tested on: Foxtail, Giant; assay: Test A postemergence, giant foxtail; conditions: approximately 10 d
[20] = tested on: barnyardgrass (Echinochloa crus-galli); assay: Test B flooded paddy test, barnyardgrass; conditions: 250 g ai/ha, Flood (paddy water), 13 to 15 d
Method: as §2

| Compound | Plant response rating (0 to 100 scale, 0 is no effect, 100 is complete control) ([1]; 31 g ai/ha) | Plant response rating (0 to 100 scale, 0 is no effect, 100 is complete control) ([1]; 125 g ai/ha) | Plant response rating (0 to 100 scale, 0 is no effect, 100 is complete control) ([2]; 31 g ai/ha) | Plant response rating (0 to 100 scale, 0 is no effect, 100 is complete control) ([2]; 125 g ai/ha) | Plant response rating (0 to 100 scale, 0 is no effect, 100 is complete control) ([3]; 31 g ai/ha) | Plant response rating (0 to 100 scale, 0 is no effect, 100 is complete control) ([3]; 125 g ai/ha) | Plant response rating (0 to 100 scale, 0 is no effect, 100 is complete control) ([4]; 31 g ai/ha) | Plant response rating (0 to 100 scale, 0 is no effect, 100 is complete control) ([4]; 125 g ai/ha) | Plant response rating (scale of 0 to 100, 0 is no effect, 100 is complete control) [5] | Plant response rating (0 to 100 scale, 0 is no effect, 100 is complete control) ([6]; 31 g ai/ha) | Plant response rating (0 to 100 scale, 0 is no effect, 100 is complete control) ([6]; 125 g ai/ha) | Plant response rating (0 to 100 scale, 0 is no effect, 100 is complete control) ([7]; 31 g ai/ha) | Plant response rating (0 to 100 scale, 0 is no effect, 100 is complete control) ([7]; 125 g ai/ha) | Plant response rating (0 to 100 scale, 0 is no effect, 100 is complete control) ([8]; 31 g ai/ha) | Plant response rating (0 to 100 scale, 0 is no effect, 100 is complete control) ([8]; 125 g ai/ha) | Plant response rating (0 to 100 scale, 0 is no effect, 100 is complete control) ([9]; 31 g ai/ha) | Plant response rating (0 to 100 scale, 0 is no effect, 100 is complete control) ([9]; 125 g ai/ha) | Plant response rating (0 to 100 scale, 0 is no effect, 100 is complete control) ([10]; 31 g ai/ha) | Plant response rating (0 to 100 scale, 0 is no effect, 100 is complete control) ([10]; 125 g ai/ha) | Plant response rating (0 to 100 scale, 0 is no effect, 100 is complete control) ([11]; 31 g ai/ha) | other results |
| --- | --- | --- | --- | --- | --- | --- | --- | --- | --- | --- | --- | --- | --- | --- | --- | --- | --- | --- | --- | --- | --- |
| CNN=C1[C@H](C(=O)Nc2cccc(F)c2F)[C@@H](c2ccc(C(F)(F)F)cc2)CN1C (relative stereo) [Compound 3] | 20 | 60 | 0 | 90 | 40 | 80 | 0 | 30 | 0 | 0 | 50 | 0 | 40 | 70 | 90 | 0 | 90 | 60 | 80 | 0 | Plant response rating (0 to 100 scale, 0 is no effect, 100 is complete control) ([11]; 125 g ai/ha): 70; Plant response rating (0 to 100 scale, 0 is no effect, 100 is complete control) ([12]; 31 g ai/ha): 0; Plant response rating (0 to 100 scale, 0 is no effect, 100 is complete control) ([12]; 125 g ai/ha): 30; Plant response rating (0 to 100 scale, 0 is no effect, 100 is complete control) ([13]; 31 g ai/ha): 20; Plant response rating (0 to 100 scale, 0 is no effect, 100 is complete control) ([13]; 125 g ai/ha): 30; Plant response rating (scale of 0 to 100, 0 is no effect, 100 is complete control) [14]: 100; Plant response rating (0 to 100 scale, 0 is no effect, 100 is complete control) ([15]; 31 g ai/ha): 60; Plant response rating (0 to 100 scale, 0 is no effect, 100 is complete control) ([15]; 125 g ai/ha): 70; Plant response rating (scale of 0 to 100, 0 is no effect, 100 is complete control) [16]: 0; Plant response rating (0 to 100 scale, 0 is no effect, 100 is complete control) ([17]; 31 g ai/ha): 0; Plant response rating (0 to 100 scale, 0 is no effect, 100 is complete control) ([17]; 125 g ai/ha): 0; Plant response rating (0 to 100 scale, 0 is no effect, 100 is complete control) ([18]; 31 g ai/ha): 30; Plant response rating (0 to 100 scale, 0 is no effect, 100 is complete control) ([18]; 125 g ai/ha): 90; Plant response rating (0 to 100 scale, 0 is no effect, 100 is complete control) ([19]; 31 g ai/ha): 40; Plant response rating (0 to 100 scale, 0 is no effect, 100 is complete control) ([19]; 125 g ai/ha): 70; Plant response rating (scale of 0 to 100, 0 is no effect, 100 is complete control) [20]: 70 |
| CN1C[C@H](c2ccc(C(F)(F)F)cc2)[C@@H](C(=O)Nc2cccc(F)c2F)C1=NNC(=O)OC(C)(C)C (relative stereo) [Compound 8] | 0 | 0 | 30 | 40 | 30 | 60 | 20 | 80 | 0 | 0 | 0 | 10 | 60 | 90 | 90 | 20 | 70 | 60 | 70 | 30 | Plant response rating (0 to 100 scale, 0 is no effect, 100 is complete control) ([11]; 125 g ai/ha): 80; Plant response rating (0 to 100 scale, 0 is no effect, 100 is complete control) ([12]; 31 g ai/ha): 0; Plant response rating (0 to 100 scale, 0 is no effect, 100 is complete control) ([12]; 125 g ai/ha): 40; Plant response rating (0 to 100 scale, 0 is no effect, 100 is complete control) ([13]; 31 g ai/ha): 20; Plant response rating (0 to 100 scale, 0 is no effect, 100 is complete control) ([13]; 125 g ai/ha): 70; Plant response rating (scale of 0 to 100, 0 is no effect, 100 is complete control) [14]: 60; Plant response rating (0 to 100 scale, 0 is no effect, 100 is complete control) ([15]; 31 g ai/ha): 60; Plant response rating (0 to 100 scale, 0 is no effect, 100 is complete control) ([15]; 125 g ai/ha): 80; Plant response rating (scale of 0 to 100, 0 is no effect, 100 is complete control) [16]: 0; Plant response rating (0 to 100 scale, 0 is no effect, 100 is complete control) ([17]; 125 g ai/ha): 20; Plant response rating (0 to 100 scale, 0 is no effect, 100 is complete control) ([18]; 31 g ai/ha): 90; Plant response rating (0 to 100 scale, 0 is no effect, 100 is complete control) ([18]; 125 g ai/ha): 90; Plant response rating (0 to 100 scale, 0 is no effect, 100 is complete control) ([19]; 31 g ai/ha): 50; Plant response rating (0 to 100 scale, 0 is no effect, 100 is complete control) ([19]; 125 g ai/ha): 80; Plant response rating (scale of 0 to 100, 0 is no effect, 100 is complete control) [20]: 75 |
